Measurements from paper PMC11047580, “Design and Synthesis of Novel Amino and Acetamidoaurones with Antimicrobial Activities” (Antibiotics, 2024).
Values after ≈ are worked out from the molar mass of the structure shown.

What was measured:
[1] = system: P. aeruginosa ATCC9027; assay: MIC assay; type: cell-based, Pseudomonas aeruginosa; details: Pseudomonas aeruginosa, ATCC9027; two-fold serial dilutions in liquid media; n = 2–3
[2] = Cytotoxic assay (resazurin); details: human, HepG2 liver cells
[3] = Cytotoxic assay (resazurin); details: human, BEAS-2B normal lung epithelial cells
[4] = system: B. subtilis ATCC6633; assay: MIC assay; type: cell-based, Bacillus subtilis; details: Bacillus subtilis, ATCC6633; two-fold serial dilutions in liquid media; n = 2–3
[5] = Cytotoxic assay (resazurin); details: human, Caco-2
[6] = Cytotoxic assay, summary over the six human cell types; details: human, 48 h exposure
[7] = system: human cells (A498, BEAS-2B, Caco-2, HaCaT, HepG2, IMR-90); assay: as above; details: for Highest TI: highest CC50 on human cells divided by MIC on S. aureus; for Lowest TI: lowest CC50 on human cells divided by MIC on S. aureus
[8] = Cytotoxic assay (resazurin); details: human, HaCaT normal epidermal keratinocytes
[9] = Cytotoxic assay (resazurin); details: human, A498 kidney epithelial cells
[10] = system: M. smegmatis ATCC700084; assay: MIC assay (REMA); type: cell-based, Mycobacterium smegmatis; details: Mycolicibacterium smegmatis, ATCC700084, REMA microdilution, n = 2–3
[11] = system: S. aureus ATCC6538P; assay: MIC assay; type: cell-based, Staphylococcus aureus; details: Staphylococcus aureus, ATCC6538P; two-fold serial dilutions in liquid media; n = 2–3
[12] = system: E. coli ATCC8739; assay: MIC assay; type: cell-based, Escherichia coli; details: two-fold serial dilutions in liquid media, n = 2–3; for MIC: Escherichia coli, ATCC8739
[13] = Cytotoxic assay (resazurin); details: human, IMR-90 normal lung fibroblasts
[14] = system: C. albicans DSM10697; assay: MIC assay; type: cell-based, Candida albicans; details: two-fold serial dilutions in liquid media, n = 2–3; for MIC: Candida albicans, DSM10697
[15] = system: B. subtilis, S. aureus, E. coli, P. aeruginosa, M. smegmatis, C. albicans; assay: First MIC screening, summary over the species of Table 2; type: cell-based; details: discussion of the first screening
[16] = Highest CC50, highest of the six human cell types
[17] = Lowest CC50, lowest of the six human cell types
[18] = Mean CC50, mean over the six human cell types

Row | SMILES | MIC [1] [µM] | CC50 at 48 h [2] [µM] | CC50 at 48 h [3] [µM] | MIC [4] [µM] | melting point [°C] | CC50 at 48 h [5] [µM] | CC50 at 48 h [6, 16] [µM] | CC50 at 48 h [6, 17] [µM] | Highest TI [7] | Lowest TI [7] | CC50 at 48 h [8] [µM] | CC50 at 48 h [9] [µM] | MIC [10] [µM] | MIC [11] [µM] | MIC [12] [µM] | CC50 at 48 h [13] [µM] | MIC [14] [µM] | MIC C. albicans DSM10697 [14] | activity against tested micro-organisms (in words) [15] | also measured
1 | Nc1ccc2c(c1)C(=O)/C(=C/c1cccc(OCc3ccccc3)c1)O2 [Compound 12, (Z)-5-amino-2-(3-(benzyloxy)benzylidene)benzofuran-3(2H)-one] | > 100 | 343 | 74.6 | 25 (≈ 8.58 µg/mL) | 132.6 | 112 | 343 | 42.4 | 3.4 | 0.4 | 51.3 | 152 | 50 (≈ 17.2 µg/mL) | 100 (≈ 34.3 µg/mL) | > 100 | 42.4 | > 100 | inactive | – | CC50 at 48 h [6, 18]: 129 µM; MIC E. coli ATCC8739 [12]: inactive
2 | CC(C)Oc1cccc(/C=C2\Oc3ccc(N)cc3C2=O)c1 [Compound 22, (Z)-5-amino-2-(3-isopropoxybenzylidene)benzofuran-3(2H)-one] | > 100 | – | – | > 100 | 198.4 | – | – | – | – | – | – | – | > 100 | > 100 | > 100 | – | > 100 | – | weak or no activity | –
3 | CC(C)Oc1ccccc1/C=C1\Oc2ccc(N)cc2C1=O [Compound 21, (Z)-5-amino-2-(2-isopropoxybenzylidene)benzofuran-3(2H)-one] | > 100 | – | – | > 100 | – | – | – | – | – | – | – | – | > 100 | > 100 | > 100 | – | > 100 | – | weak or no activity | –
4 | Nc1ccc2c(c1)C(=O)/C(=C/c1cccc(Oc3ccccc3)c1)O2 [Compound 16, (Z)-5-amino-2-(3-phenoxybenzylidene)benzofuran-3(2H)-one] | > 100 | 398 | 130 | 25 (≈ 8.23 µg/mL) | 145.6 | 132 | 452 | 80.4 | 18.0 | 3.2 | 80.4 | 452 | 50 (≈ 16.5 µg/mL) | 25 (≈ 8.23 µg/mL) | 25 (≈ 8.23 µg/mL) | 116 | > 100 | inactive | – | CC50 at 48 h [6, 18]: 218 µM
5 | CC(=O)Nc1ccc2c(c1)C(=O)/C(=C/c1cccc(OC(C)C)c1)O2 [Compound 19, (Z)-N-(2-(3-isopropoxybenzylidene)-3-oxo-2,3-dihydrobenzofuran-5-yl)acetamide] | 25 (≈ 8.43 µg/mL) | – | – | > 100 | – | – | – | – | – | – | – | – | > 100 | > 100 | > 100 | – | > 100 | – | weak or no activity | –
6 | CC(=O)Nc1ccc2c(c1)C(=O)/C(=C/c1ccccc1OC(C)C)O2 [Compound 18, (Z)-N-(2-(2-isopropoxybenzylidene)-3-oxo-2,3-dihydrobenzofuran-5-yl)acetamide] | > 100 | – | – | > 100 | – | – | – | – | – | – | – | – | > 100 | > 100 | > 100 | – | > 100 | – | weak or no activity | –
7 | CC(=O)Nc1ccc2c(c1)C(=O)/C(=C/c1ccc(Oc3ccccc3)cc1)O2 [Compound 15, (Z)-N-(3-oxo-2-(4-phenoxybenzylidene)-2,3-dihydrobenzofuran-5-yl)acetamide] | > 100 | > 500 | 110 | 50 (≈ 18.6 µg/mL) | 213.5 | 137 | > 500 | 110 | >5 | 1.0 | > 500 | 146 | 50 (≈ 18.6 µg/mL) | 100 (≈ 37.1 µg/mL) | > 100 | > 500 | > 100 | inactive | – | MIC E. coli ATCC8739 [12]: inactive
